Source: PMC3154745 (Chembiochem : a European journal of chemical biology, 2011)
No end group written: not given here.

What was measured:
[1] = target: HP1a-CSD S199E and S202E double mutant (Drosophila melanogaster, UniProt P05205, S199E/S202E); assay type: binding; conditions: FP; for enhancement of affinity by the phosphorylation mimic, relative to WT CSD: S199E S202E double mutant vs WT HP1a-CSD
[2] = target: HP1a-CSD I191E mutant (Drosophila melanogaster, UniProt P05205, I191E); assay: biochemical
[3] = target: T1, wild-type HP1a-CSD (Drosophila melanogaster, UniProt P05205); assay: Fluorescence polarization binding assay, wild-type HP1a-CSD; conditions: for affinity for HP1a CSD compared with the PIWI peptide: in words, Kd not given
T1 sequence (P05205 131-206): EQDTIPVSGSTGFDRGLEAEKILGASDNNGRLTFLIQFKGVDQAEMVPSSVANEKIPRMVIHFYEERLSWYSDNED

[4] = target: HP1a-CSDΔ204 (residues 131–203) (Drosophila melanogaster, UniProt P05205); assay type: binding; conditions: FP; Δ204 (last three residues removed) vs WT HP1a-CSD
[5] = target: HP1a-CSD W200A mutant (Drosophila melanogaster, UniProt P05205, W200A); assay: biochemical
[6] = target: HP1a-CSD E195Q mutant (Drosophila melanogaster, UniProt P05205, E195Q); assay type: binding; conditions: FP; E195Q vs WT HP1a-CSD
[7] = system: HP1β (homodimerization); assay: Equilibrium analytical ultracentrifugation, HP1β self-association; conditions: same buffer conditions

Sequence of HP1a-CSD S199E and S202E double mutant (P05205 131-206 S199E/S202E): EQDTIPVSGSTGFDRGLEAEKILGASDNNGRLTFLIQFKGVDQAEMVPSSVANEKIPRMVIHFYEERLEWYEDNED
Sequence of HP1a-CSD W200A mutant (P05205 131-206 W200A): as the sequence (P05205 131-206 S199E/S202E) above, with E69S, W70A, E72S counted along it
Sequence of HP1a-CSD I191E mutant (P05205 131-206 I191E): as the sequence (P05205 131-206 S199E/S202E) above, with I61E, E69S, E72S counted along it
Sequence of HP1a-CSD E195Q mutant (P05205 131-206 E195Q): as the sequence (P05205 131-206 S199E/S202E) above, with E65Q, E69S, E72S counted along it

Substance | enhancement of affinity by the phosphorylation mimic, relative to WT CSD [1] [fold] | Kd [2] [µM] | weaker binding to the Δ204 construct, relative to WT CSD [4] [fold] | Kd [5] [µM] | drop in affinity caused by the E195Q mutation, relative to WT CSD [6] [fold] | affinity for HP1a CSD compared with the PIWI peptide ([3]; FP, WT HP1a-CSD) | further results
QNISPRKLSVKINRRPYNKWLR [HP2] | 7 | > 400 | 16 | > 500 | 10 | – | Hill coefficient of peptide binding ([1]; S199E S202E double mutant): 1.7 ± 0.3; difference in dissociation constant between HP2 and PIWI peptides ([3]; FP, WT HP1a-CSD, sub-micromolar to micromolar range): two-order of magnitude difference
H-PATTSPLVVLSNQLPLNSVAASY-OH [AF10] | – | – | – | – | – | quite similar | –
TSRGSGDPRVKVFRGSSSGDY [PIWI] | 12 | > 2000 | 3 | > 2000 | 5 | – | –
full length HP1β: recombinant full length mammalian HP1β (human and mouse sequences identical) | – | – | – | – | – | – | dimerization tighter than that of HP1a [7]: 3 times
H-SEGRRLYPLLPRISPQTALSIVANDLAESD-OH [CG15356] | – | – | – | – | – | quite similar | –
TSRGSGDLSVKIFRGSSSGDY [PIWI peptide with HP2 pentamer] | – | – | – | – | – | – | Kd [3]: 21.3 ± 1.3 µM
